Literature values as cited in US20180140592A1, “5-CHLORO-4-HYDROXY-1-METHYL-2-OXO-N-PHENYL-1,2-DIHYDROQUINOLINE-3-CARBOXAMIDE, SALTS AND USES THEREOF” (Teva Pharmaceutical Industries, Ltd., priority 2010, published 2018).

Assays:
[1] = test system: acute experimental autoimmune encephalomyelitis (aEAE) model; settings: U.S. Pat. No. 6,077,851
[2] = test system: relapsing MS; settings: Polman et al. 2005
[3] = test system: experimental inflammatory/autoimmune animal models; settings: EAE, DSS induced colitis, NOD mice, EAN, SLE and others

In the case of CCN(C(=O)c1c(O)c2c(Cl)cccc2n(C)c1=O)c1ccccc1 [Laquinimod, N-ethyl-N-phenyl-1,2-dihydro-4-hydroxy-5-chloro-1-methyl-2-oxoquinoline-3-carboxamide], the “efficacy in the aEAE model” value [1] is listed as “effective”, the “development of active MRI lesions” value [2] is listed as “reduce development of active MRI lesions” and the “therapeutic effect in animal models” value [3] is listed as “demonstrated therapeutic effect”.
